Experimental data reported in patent US20110319392A1, “Thiazole Sulfonamide And Oxazole Sulfonamide Kinase Inhibitors” (priority 2009, published 2011).

What was measured:
EGFR = biological target: T1, EGFR (Homo sapiens, UniProt P00533); assay: EGFR substrate phosphorylation assay (HTRF); type: biochemical
T1 construct: made in house; host or cells: baculovirus expression system
Outline: (§1)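 Baculovirus-expressed EGFR (0.8 nM) or ErbB2 (10 nM) in enzyme mix, preincubated 1 h at 20 °C with compound (0.00027–47.6 μM final), then 90 min at 20 °C with substrate mix of 20 μM ATP, 0.8 uM biotinylated Peptide C, MnCl2, MOPS pH 7.5. Phosphotyrosine by HTRF; pIC50 reported.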

ErbB2 = biological target: T2, ErbB2 (Homo sapiens, UniProt P04626); assay: ErbB-2 substrate phosphorylation assay (HTRF); type: biochemical
T2 construct: made in house; host or cells: baculovirus expression system
Outline: as §1

Colo205 tumor cells = assay: Cell growth inhibition assay (CellTiter-Glo), Colo205; type: cell-based, Human; settings: Homo sapiens, COLO 205, 72 h; 3 days incubation
Outline: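 Readout was CellTiter-Glo luminescence (total ATP, surrogate for cell number) after 3-day exposure at 37° C, 5% CO2 to 1:3 serial compound dilutions in 0.2% final DMSO. Seeding was 500 cells/well; IC50 derived by 4-parameter fit relative to vehicle-treated wells.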

T2 sequence (P04626 23-1255): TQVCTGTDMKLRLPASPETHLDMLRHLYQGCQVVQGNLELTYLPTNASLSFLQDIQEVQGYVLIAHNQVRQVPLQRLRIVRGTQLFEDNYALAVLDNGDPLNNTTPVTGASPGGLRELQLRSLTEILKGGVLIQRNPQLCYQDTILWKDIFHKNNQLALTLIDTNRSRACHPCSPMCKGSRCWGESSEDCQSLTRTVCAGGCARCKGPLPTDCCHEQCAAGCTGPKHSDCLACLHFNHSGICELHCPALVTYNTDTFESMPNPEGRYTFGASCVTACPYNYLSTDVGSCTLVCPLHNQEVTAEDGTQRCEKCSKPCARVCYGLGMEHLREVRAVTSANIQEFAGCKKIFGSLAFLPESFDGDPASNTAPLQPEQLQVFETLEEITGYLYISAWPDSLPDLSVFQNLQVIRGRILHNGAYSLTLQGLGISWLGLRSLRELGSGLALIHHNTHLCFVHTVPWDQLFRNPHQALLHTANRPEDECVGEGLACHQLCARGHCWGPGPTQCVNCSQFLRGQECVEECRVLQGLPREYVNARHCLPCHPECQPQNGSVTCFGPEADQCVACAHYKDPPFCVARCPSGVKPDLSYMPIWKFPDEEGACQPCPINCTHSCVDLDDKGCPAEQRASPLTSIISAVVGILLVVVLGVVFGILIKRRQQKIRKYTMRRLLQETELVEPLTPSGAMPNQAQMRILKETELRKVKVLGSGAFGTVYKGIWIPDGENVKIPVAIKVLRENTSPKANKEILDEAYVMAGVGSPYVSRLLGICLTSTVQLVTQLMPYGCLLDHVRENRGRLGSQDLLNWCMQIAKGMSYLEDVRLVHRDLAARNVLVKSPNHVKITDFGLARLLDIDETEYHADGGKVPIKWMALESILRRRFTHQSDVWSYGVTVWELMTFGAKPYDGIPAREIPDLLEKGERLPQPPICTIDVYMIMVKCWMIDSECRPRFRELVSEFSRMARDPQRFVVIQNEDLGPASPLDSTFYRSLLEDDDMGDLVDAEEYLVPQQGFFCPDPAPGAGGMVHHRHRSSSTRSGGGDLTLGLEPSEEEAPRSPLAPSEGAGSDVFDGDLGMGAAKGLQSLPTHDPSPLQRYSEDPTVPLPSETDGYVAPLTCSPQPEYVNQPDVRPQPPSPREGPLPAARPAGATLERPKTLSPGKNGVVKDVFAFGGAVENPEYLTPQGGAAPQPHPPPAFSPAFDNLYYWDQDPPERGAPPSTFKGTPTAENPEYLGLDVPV
T1 sequence (P00533 25-1210): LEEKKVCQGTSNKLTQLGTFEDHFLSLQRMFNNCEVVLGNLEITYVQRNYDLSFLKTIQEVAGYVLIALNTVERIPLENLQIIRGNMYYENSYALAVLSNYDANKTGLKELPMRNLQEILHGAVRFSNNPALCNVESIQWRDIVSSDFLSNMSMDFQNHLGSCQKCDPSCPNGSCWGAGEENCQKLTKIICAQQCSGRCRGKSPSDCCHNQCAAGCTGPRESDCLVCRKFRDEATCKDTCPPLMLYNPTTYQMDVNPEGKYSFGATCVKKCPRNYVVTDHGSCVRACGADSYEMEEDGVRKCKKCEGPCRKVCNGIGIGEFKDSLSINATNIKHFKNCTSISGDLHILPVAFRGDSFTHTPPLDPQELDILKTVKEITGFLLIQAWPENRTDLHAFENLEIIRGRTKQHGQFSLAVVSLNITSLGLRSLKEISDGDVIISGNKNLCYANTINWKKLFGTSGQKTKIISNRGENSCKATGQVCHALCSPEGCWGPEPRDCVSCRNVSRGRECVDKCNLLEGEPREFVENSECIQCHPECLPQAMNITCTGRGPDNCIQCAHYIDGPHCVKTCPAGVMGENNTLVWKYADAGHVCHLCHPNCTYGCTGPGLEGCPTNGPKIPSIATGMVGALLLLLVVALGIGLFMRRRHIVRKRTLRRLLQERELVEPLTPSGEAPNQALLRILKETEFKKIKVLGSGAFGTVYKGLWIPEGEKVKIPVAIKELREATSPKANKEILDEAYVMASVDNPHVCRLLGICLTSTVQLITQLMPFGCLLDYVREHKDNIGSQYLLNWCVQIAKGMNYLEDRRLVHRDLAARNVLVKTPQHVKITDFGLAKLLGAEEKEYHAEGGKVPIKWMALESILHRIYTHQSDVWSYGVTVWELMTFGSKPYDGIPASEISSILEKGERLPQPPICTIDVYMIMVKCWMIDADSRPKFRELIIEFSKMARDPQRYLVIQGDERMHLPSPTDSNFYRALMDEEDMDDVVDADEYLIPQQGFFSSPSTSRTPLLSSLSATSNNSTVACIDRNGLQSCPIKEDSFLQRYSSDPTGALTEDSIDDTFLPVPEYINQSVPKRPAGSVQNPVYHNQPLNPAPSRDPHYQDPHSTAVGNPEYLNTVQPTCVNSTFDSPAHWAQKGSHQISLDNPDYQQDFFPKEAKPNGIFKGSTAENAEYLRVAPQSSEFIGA

Compound	IC50 (EGFR) [nM]	IC50 (ErbB2) [nM]	IC50 (Colo205 tumor cells) [nM]
CCc1nc(-c2cccc(NS(=O)(=O)c3ccccc3)c2)c(-c2ccnc(Nc3ccc(N4CCN(C(C)=O)CC4)nc3)n2)s1 [Example 3, N-{3-[5-(2-{[6-(4-Acetyl-1-piperazinyl)-3-pyridinyl]amino}-4-pyrimidinyl)-2-ethyl-1,3-thiazol-4-yl]phenyl}benzenesulfonamide]	> 1000	> 1000	< 100
CCc1nc(-c2cccc(NS(=O)(=O)c3ccccc3)c2)c(-c2ccnc(Nc3ccc(N4CCOCC4)c(F)c3)n2)s1 [Example 4]	> 1000	> 1000	100 to 1000
CCc1nc(-c2cccc(NS(=O)(=O)c3ccccc3)c2)c(-c2ccnc(Nc3ccc(OC)c(N4CCN(CCS(C)(=O)=O)CC4)c3)n2)s1 [Example 5, N-[3-(2-Ethyl-5-{2-[(4-(methyloxy)-3-{4-[2-(methylsulfonyl)ethyl]-1-piperazinyl}phenyl)amino]-4-pyrimidinyl}-1,3-thiazol-4-yl)phenyl]benzenesulfonamide]	100 to 1000	100 to 1000	< 100
CC(=O)N1CCc2cc(Nc3nccc(-c4sc(C(C)C)nc4-c4cccc(NS(=O)(=O)c5ccccc5)c4)n3)ccc21 [Example 71]	100 to 1000	< 100	< 100
CC(C)c1nc(-c2cccc(NS(=O)(=O)c3ccccc3)c2)c(-c2ccnc(Nc3ccc(CC4CCN(CCS(C)(=O)=O)CC4)c(F)c3)n2)s1 [Example 72]	100 to 1000	> 1000	100 to 1000
CC(C)c1nc(-c2cccc(NS(=O)(=O)c3ccccc3)c2)c(-c2ccnc(Nc3ccc(F)c(N4CCN(CCS(C)(=O)=O)CC4)c3)n2)s1 [Example 73]	100 to 1000	100 to 1000	< 100
CC(C)c1nc(-c2cccc(NS(=O)(=O)c3ccccc3)c2)c(-c2ccnc(Nc3ccc(N4CCN(CCS(C)(=O)=O)CC4)c(F)c3F)n2)s1 [Example 74]	> 1000	> 1000	100 to 1000
CC(C)c1nc(-c2cccc(NS(=O)(=O)c3c(F)cccc3F)c2)c(-c2ccnc(Nc3ccc(N4CCN(C(C)C)CC4)cc3O)n2)s1 [Example 78]	100 to 1000	100 to 1000	< 100
COc1cc(N2CCN(CCF)CC2)ccc1Nc1nccc(-c2sc(C(C)C)nc2-c2cccc(NS(=O)(=O)c3c(F)cccc3F)c2)n1 [Example 79]	100 to 1000	100 to 1000	100 to 1000
CC(C)c1nc(-c2cccc(NS(=O)(=O)c3c(F)cccc3F)c2)c(-c2ccnc(Nc3ccc(N4CCN(CCO)CC4)nc3)n2)s1 [Example 80]	< 100	> 1000	< 100
CC(C)c1nc(-c2cccc(NS(=O)(=O)c3c(F)cccc3F)c2)c(-c2ccnc(Nc3cccc(N4CCN(C)CC4)c3)n2)s1 [Example 81]	< 100	100 to 1000	< 100
CC(C)c1nc(-c2cccc(NS(=O)(=O)c3c(F)cccc3F)c2)c(-c2ccnc(Nc3ccc(N4CCCNCC4)nc3)n2)s1 [Example 82]	< 100	100 to 1000	< 100
CC(C)c1nc(-c2cc(F)cc(NS(=O)(=O)c3ccc(F)cc3)c2)c(-c2ccnc(Nc3ccc(N4CCOCC4)c(F)c3)n2)s1 [Example 83]	> 1000	> 1000	100 to 1000
CC(C)c1nc(-c2cc(F)cc(NS(=O)(=O)c3c(F)cccc3F)c2)c(-c2ccnc(Nc3ccc(N4CCOCC4)nc3)n2)s1 [Example 84]	100 to 1000	> 1000	< 100
CC(C)c1nc(-c2cc(F)cc(NS(=O)(=O)c3c(F)cccc3F)c2)c(-c2ccnc(Nc3ccc(N4CCOCC4)c(F)c3)n2)s1 [Example 85]	> 1000	100 to 1000	< 100
CC(C)c1nc(-c2cccc(NS(=O)(=O)c3c(F)cccc3F)c2)c(-c2ccnc(Nc3cc(F)c(N4CCN(CCS(C)(=O)=O)CC4)cc3F)n2)s1 [Example 87]	> 1000	100 to 1000	< 100
CC(C)c1nc(-c2cccc(NS(=O)(=O)c3c(F)cccc3F)c2)c(-c2ccnc(Nc3ccc(N4CCCN(CCS(C)(=O)=O)CC4)nc3)n2)s1 [Example 88]	100 to 1000	100 to 1000	< 100
CC(C)c1nc(-c2cccc(NS(=O)(=O)c3c(F)cccc3F)c2)c(-c2ccnc(Nc3ccc(N4CC[C@@H](O)C4)nc3)n2)s1 [Example 89]	100 to 1000	100 to 1000	< 100
Cc1cc(N2CCC(N3CCCCC3)CC2)ccc1Nc1nccc(-c2sc(C(C)C)nc2-c2cccc(NS(=O)(=O)c3c(F)cccc3F)c2)n1 [Example 91]	< 100	< 100	< 100
CC(C)c1nc(-c2cccc(NS(=O)(=O)c3ccccc3)c2)c(-c2ccnc(Nc3ccc(N4CCOCC4)cn3)n2)s1 [Example 92]	> 1000	> 1000	100 to 1000
C=C(C)c1nc(-c2cccc(NS(=O)(=O)c3c(F)cccc3F)c2)c(-c2ccnc(Nc3ccc(N4CCN(CCF)CC4)c(F)c3)n2)s1 [Example 93]	100 to 1000	100 to 1000	< 100
CC(C)c1nc(-c2ccc(F)c(NS(=O)(=O)c3c(F)cccc3F)c2)c(-c2ccnc(Nc3ccc(N4CCN(CCS(C)(=O)=O)CC4)c(F)c3)n2)s1 [Example 95]	100 to 1000	100 to 1000	< 100
CC(=O)N1CCN(c2ccc(Nc3nccc(-c4sc(C(C)C)nc4-c4cccc(NS(=O)(=O)c5cc(F)ccc5F)c4)n3)cn2)CC1 [Example 96]	100 to 1000	> 1000	< 100
